Laboratory results from BigSolDB 2.1.

O=S(=O)(c1ccccc1)c1ccc(Cl)cc1
solubility (mole fraction)
Settings | 278.15 K | 283.15 K | 288.15 K | 293.15 K | 298.15 K | 303.15 K | 308.15 K | 313.15 K | 318.15 K | 323.15 K
in ethanol | 0.00091 | 0.00105 | 0.00121 | 0.00142 | 0.00166 | 0.00189 | 0.00221 | 0.00261 | 0.00301 | 0.00358
in isopropanol | 0.00198 | 0.00236 | 0.00283 | 0.00338 | 0.00395 | 0.00468 | 0.00547 | 0.00629 | 0.00722 | 0.00838
in methanol | 0.000276 | 0.000332 | 0.000401 | 0.00049 | 0.000572 | 0.000668 | 0.000781 | 0.0009 | 0.00105 | 0.00125
in n-propanol | 0.00351 | 0.00411 | 0.00479 | 0.00555 | 0.00645 | 0.00754 | 0.00885 | 0.0102 | 0.0116 | 0.0137
in water | 2.88e-06 | 3.77e-06 | 4.7e-06 | 5.95e-06 | 7.38e-06 | 9.03e-06 | 1.1e-05 | 1.34e-05 | 1.61e-05 | 1.94e-05
